The values below come from patent US11845763B2, “Tricarbonyl complexes of transition metals with benzo-heterocyclic derivatives of the cyclopentadienyl anion” (National Centre For Scientific Research “Demokritos”, priority 2018, dated 2023).

Like-named read-outs stand apart in the source and are kept apart here.

Data set [1] in a line: Stability of 99mTc complexes under excess histidine or cysteine (HPLC). The class given is physicochemical. The conditions noted are these: percentage of intact complex by HPLC, PBS pH 7.4, 37° C.; for Stability, Cysteine, 1 h / Stability, Cysteine, 3 h / Stability, Cysteine, 6 h: excess cysteine; for Stability, Histidine, 1 h / Stability, Histidine, 3 h / Stability, Histidine, 6 h: excess histidine. How it is done:
The stability of ^99mTc-2-^99mTc-4 complexes was assessed in the presence of excess histidine and cysteine which are capable of acting as tridentate substituents replacing the ligands of the complexes. Each of the HPLC-purified ^99mTc complex (0.5 mL, approx. 10 MBq) was mixed with a solution of histidine or cysteine (2 mM) in 0.1 M PBS, pH 7.4 (0.5 mL). The mixture was incubated at 37° C. and analyzed by HPLC after 1, 3, and 6 h. The recording of the percentage of the intact complexes in the presence of the antagonists at each time point of the study allows the estimation of the stability of the labeled ^99mTc complexes.

The nature of data set [2]: Lipophilicity, partition coefficient n-octanol/PBS. The class given is physicochemical. How it is done:
The lipophilicity of ^99mTc-2-^99mTc-4 complexes was determined by the estimation of the partition coefficient in a biphasic system of n-octanol and water (PBS). The partition coefficient was expressed as the logarithm of the ratio of the counts per gram from n-octanol versus those from PBS (log Poct/water), where P is the ratio. The measurement was done in triplicate and repeated three times.

The nature of data set [3]: Blood-brain barrier permeability by biodistribution studies in mice. The data set is classed as in vivo, Swiss Albino mice. The conditions noted are these: for Biodistribution of radioactivity, Blood / Biodistribution of radioactivity, Brain / Biodistribution of radioactivity, Heart / Biodistribution of radioactivity, Intestines / Biodistribution of radioactivity, Kidneys / Biodistribution of radioactivity, Liver / Biodistribution of radioactivity, Lungs / Biodistribution of radioactivity, Muscle / Biodistribution of radioactivity, Pancreas / Biodistribution of radioactivity, Spleen / Biodistribution of radioactivity, Stomach: tail vein injection, healthy Swiss Albino mice; for percentage of radioactivity in the brain: 2 min, Swiss Albino mice. The method, then: This evaluation was conducted through biodistribution studies in healthy Swiss Albino mice (5 weeks old, 20-30 g) that were obtained from the breeding facilities of the Institute of Biosciences & Applications, NCSR “Demokritos”. During these experiments we evaluate the distribution of radioactivity in the tissues of the animal after radiolabeled compound administration. For the credibility of the in vivo distribution data, three independent experiments are required for each evaluation, where in each experiment the animal population ranges between 9 and 12. The experiments of synthesis, labelling and biodistribution were carried out in the Laboratory of “Radiopharmaceuticals”, NCSR “Demokritos” that has the required infrastructure to ensure safe conduct of experiments using radioactivity. All the biodistribution studies were carried out in compliance with the Presidential Decree 56/2013 (published in the Official Government Gazette of Greece 106 A/30-4-2013) that has transposed the EU Directive 2010/63 on the protection of animals used for scientific purposes.
Three groups of mice (three animals per group) were injected in the tail vein with HPLC-purified ^99mTc complexes (1-2 μCi in 0.1 mL, ethanol/saline 1:9). The mice were sacrificed at various time points (2, 15, 90 min) post injection (p.i.). The organs of interest were excised, weighed, and the radioactivity counted in an automatic γ-counter. The stomach and intestines were not emptied of food contents prior to radioactivity measurements. The calculation for blood and muscle was based upon measured activity, sample weight, and body composition data, considering that blood comprises 7% and muscle 43% of body weight. The percentage of injected dose per organ (% ID/organ) was calculated by comparison of sample radioactivity to standard solutions that contained 10% of the injected dose. The percentage of injected dose per gram (% ID/g) was calculated by dividing the % ID/organ by the weight of the organ or tissue.
where cpm reference=(cpm 10% standard×10)−cpm tail.

Data set [4] has as its target Aβ42 fibrillar aggregates (Homo sapiens, UniProt P05067). The data set can be described thus: Competitive binding assay using Aβ42 fibrillar aggregates. The conditions noted are these: homologous competition, Re complex vs corresponding 99mTc complex, 50 nM Aβ42 fibrillar aggregates, 3 h room temperature. The method, then: Competitive binding assay studies were performed in 1 mL solutions in PBS in 12 mm×75 mm borosilicate glass tubes according to a published procedure with modifications. […] The solutions were incubated for 3 h at room temperature and the bound and free radioactivity were separated by Millex-GV Syringe Filter Unit, 0.22 μm filters followed by 2×2 mL washes with PBS at room temperature. Filters containing the bound ^99mTc complexes were measured for radioactivity in a γ-counter. Binding studies were repeated in triplicate. The data were analyzed using GraphPad Prism software with the IC50 value calculated using a one-site competitive binding […] regression. The Ki value was calculated using the Cheng-Prousoff equation [44]: […]
In the case of homologous competitive binding we assume that the hot and cold ligand have identical affinities so that Kd and Ki have the same value. Thus the above equation is being transformed into: Ki=IC50−[Radioligand]

Data set [5] is described as follows: Brain uptake of literature 99mTc agents (cited). The conditions noted are these: 2 min post administration, converted from % ID/organ. The class given is in vivo.
The conditions of data set [6]: cited from earlier work.
For a further data set, the target named is Aβ aggregates. As to conditions: literature value [45]; read-out: binding affinity to Aβ aggregates (Ki); cited from earlier work.

Aβ42 fibrillar aggregates, sequence (P05067 672-713 limits assumed): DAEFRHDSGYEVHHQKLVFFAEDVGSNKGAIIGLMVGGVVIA

Broadly, the Ki is a dissociation constant, usually derived from enzyme kinetics or from competition with a known ligand. Turning to `[99Tc+].[C-]#[O+].[C-]#[O+].[C-]#[O+].c1ccc2[nH]c(-[c-]3cccc3)nc2c1` [^99mTc-3], in data set [1], the “Stability, Cysteine, 1 h” value was found to be 98 ± 1; the “Stability, Cysteine, 3 h” value turned out to be 98 ± 1; the “Stability, Cysteine, 6 h” value is on record as 97 ± 2; the “Stability, Histidine, 1 h” value came to 98 ± 1. Moreover, in data set [1], the “Stability, Histidine, 3 h” value was determined as 98 ± 1 and the “Stability, Histidine, 6 h” value is on record as 97 ± 1. Moreover, the “Lipophilicity logPoct/water” value in data set [2] was 1.84 ± 0.17. Besides, in data set [3] (2 min p.i.), the “Biodistribution of radioactivity, Blood” value came to 3.38 ± 0.67 % ID/gr; the “Biodistribution of radioactivity, Brain” value was determined as 3.99 ± 0.60 % ID/gr; the “Biodistribution of radioactivity, Heart” value is reported as 7.53 ± 1.28 % ID/gr; the “Biodistribution of radioactivity, Intestines” value (shortened to “Biodistribution … Intestines”) stood at 3.06 ± 0.08 % ID/gr. Besides, in data set [3] (2 min p.i.), the “Biodistribution of radioactivity, Kidneys” value (from here on “Biodistribution … Kidneys”) came out at 9.70 ± 0.92 % ID/gr; the “Biodistribution of radioactivity, Liver” value is recorded as 13.97 ± 2.13 % ID/gr; the “Biodistribution of radioactivity, Lungs” value amounted to 7.09 ± 0.38 % ID/gr; the “Biodistribution of radioactivity, Muscle” value was 5.23 ± 0.79 % ID/gr. In data set [3] (2 min p.i.), the “Biodistribution of radioactivity, Pancreas” value (from here on “Biodistribution … Pancreas”) is given as 5.99 ± 0.62 % ID/gr; the “Biodistribution of radioactivity, Spleen” value was 2.63 ± 0.40 % ID/gr; the “Biodistribution of radioactivity, Stomach” value (shortened to “Biodistribution … Stomach”) was determined as 1.63 ± 0.44 % ID/gr. In data set [3] (15 min p.i.), the “Biodistribution of radioactivity, Blood” value is 1.86 ± 0.13 % ID/gr; the “Biodistribution of radioactivity, Brain” value is recorded as 0.75 ± 0.11 % ID/gr; the “Biodistribution of radioactivity, Heart” value came out at 1.95 ± 0.26 % ID/gr; the “Biodistribution … Intestines” value was 14.80 ± 0.25 % ID/gr. Besides, in data set [3] (15 min p.i.), the “Biodistribution … Kidneys” value stood at 5.04 ± 0.53 % ID/gr; the “Biodistribution of radioactivity, Liver” value was determined as 30.66 ± 3.96 % ID/gr; the “Biodistribution of radioactivity, Lungs” value was found to be 2.44 ± 0.39 % ID/gr; the “Biodistribution of radioactivity, Muscle” value is 1.50 ± 0.19 % ID/gr. In data set [3] (15 min p.i.), the “Biodistribution … Pancreas” value came to 1.96 ± 0.25 % ID/gr; the “Biodistribution of radioactivity, Spleen” value was 1.01 ± 0.09 % ID/gr; the “Biodistribution … Stomach” value was found to be 3.17 ± 0.43 % ID/gr. Further, in data set [3] (90 min p.i.), the “Biodistribution of radioactivity, Blood” value came out at 0.48 ± 0.12 % ID/gr; the “Biodistribution of radioactivity, Brain” value worked out at 0.04 ± 0.01 % ID/gr; the “Biodistribution of radioactivity, Heart” value amounted to 0.22 ± 0.05 % ID/gr; the “Biodistribution … Intestines” value was determined as 23.94 ± 4.27 % ID/gr. Further, in data set [3] (90 min p.i.), the “Biodistribution … Kidneys” value was 1.57 ± 0.20 % ID/gr; the “Biodistribution of radioactivity, Liver” value is given as 18.08 ± 1.34 % ID/gr; the “Biodistribution of radioactivity, Lungs” value is given as 0.45 ± 0.13 % ID/gr; the “Biodistribution of radioactivity, Muscle” value was 0.15 ± 0.03 % ID/gr. Besides, in data set [3] (90 min p.i.), the “Biodistribution … Pancreas” value is listed as 0.21 ± 0.02 % ID/gr; the “Biodistribution of radioactivity, Spleen” value is 0.17 ± 0.03 % ID/gr; the “Biodistribution … Stomach” value is listed as 4.63 ± 0.56 % ID/gr. Moreover, the “percentage of radioactivity in the brain” value in data set [3] was determined as 3.99±0.60 % ID/g. This compound came in with an inhibition constant Ki in data set [4] of 7.04 ± 2.85 nM.

In the case of `CCOC(=O)[C@H](C[S-])[N-]CCN[C@@H](C[S-])C(=O)OCC.[O-2].[Tc]` [^99mTc-ECD, 99mTc-labelled ethylene dicysteine diethyl ester], the brain penetration result in data set [5] is recorded as “approximately 4.4 % ID/gr”; in data set [6] (2 min post administration [40]), 1.32 % ID/organ.

With `Cn1c(-[c-]2cccc2)nc2ccccc21.[99Tc+].[C-]#[O+].[C-]#[O+].[C-]#[O+]` [^99mTc-4], in data set [1], the “Stability, Cysteine, 1 h” value came to 98 ± 1; the “Stability, Cysteine, 3 h” value is 95 ± 2; the “Stability, Cysteine, 6 h” value is listed as 85 ± 1; the “Stability, Histidine, 1 h” value is 98 ± 1. Moreover, in data set [1], the “Stability, Histidine, 3 h” value turned out to be 96 ± 1 and the “Stability, Histidine, 6 h” value is listed as 95 ± 1. The “Lipophilicity logPoct/water” value in data set [2] amounted to 1.50 ± 0.12. For the same compound, in data set [3], the “percentage of radioactivity in the brain” value came out at 6.14±1.00 % ID/g. This compound also returned an inhibition constant Ki in data set [4] of 5.74 ± 2.9 nM.

Consider `C/C(=N\[O-])[C@@H](C)[N-]CC(C)(C)C[N-][C@H](C)/C(C)=N/O.[O]=[99Tc+3]` (racemic) [^99mTc-HMPAO, 99mTc-hexamethylpropyleneamineoxime], for which, in data set [6] (60 min post administration [39]), the brain penetration is 5 % ID/gr.

Turning to `CN(C)c1ccc(-c2cn3cc(I)ccc3n2)cc1` [[^123I]IMPY], the inhibition constant (Ki) at Aβ aggregates was 12.5 ± 2.8 nM.
